According to PMC12469672, “Effects on Oral Squamous Carcinoma Cell Lines and Their Mechanisms of Pyrazole N-Aryl Sulfonate: A Novel Class of Selective Cyclooxygenase-2 Inhibitors” (International Journal of Molecular Sciences, 2025):
Entries after “also recorded” stand apart in the source; their conditions may differ.

Legend:
VERO cells = experiment: CCK-8 cytotoxicity assay, VERO; assay type: cell-based, African green monkey; settings: for IC50: Chlorocebus sabaeus, VERO, CCK-8, 24 h; for proliferation rate of VERO cells / cytotoxicity in VERO cells: working concentrations; for proliferation rate of VERO cells: 24 h, vs control; for cytotoxicity in VERO cells: vs CXB
Protocol: The OSCC cell lines CAL-27 (STCC12901P, Servicebio, Wuhan, China) and SAS (CC0706, Cellcook, Guangzhou, China) were cultured in Dulbecco Modified Eagle Medium F12 (DMEM/F12) (G4610-500ML, Servicebio, Wuhan, China) supplemented with 10% fetal bovine serum (FBS) (AB-FBS-DIA1050, ABW, Shanghai, China) and 100 U/mL penicillin-streptomycin-gentamicin solution (G4014-100ML, Servicebio, Wuhan, China). VERO cells were cultured in DMEM (G4524-500ML, Servicebio, Wuhan, China) supplemented with 10% FBS (AB-FBS-DIA1050, ABW, China) and 100 U/mL penicillin–streptomycin–gentamicin solution (G4014-100ML, Servicebio, Wuhan, China). […] were maintained at 37 °C in a humidified 5% CO2 incubator. For experiments, 1 × 10^6 cells were seeded per T-25 culture flask.
CAL-27, SAS, and VERO cells were seeded in 96-well plates at a density of 5000 cells per well. At specified time intervals, 10 μL of Cell Counting Kit-8 (CCK-8) reagent (K1018, Apexbio, Boston, MA, USA) was added to each well and incubated for 2 h. Absorbance at 450 nm was measured using a microplate reader (Infinite M200 Pro, Tecan Group, Männedorf, Switzerland).

[1] = test system: COX-2 protein in CAL-27 cells; experiment: Western blot COX-2, CAL-27; assay type: cell-based; settings: CAL-27, vs control group and CXB-treated group
Protocol: Cell lysates were centrifuged at 12,000× g for 10 min at 4 °C and then quantified using the BCA Protein Assay Kit (CW0014S, Cwbio, Taizhou, China). The lysate was denatured with sodium dodecyl sulfate–polyacrylamide gel electrophoresis (SDS-PAGE) sample loading buffer (P1040, Solarbio, Beijing, China), followed by SDS-PAGE and electrotransfer to polyvinylidene difluoride membranes (10600023, Cytiva, Marlborough, MA, USA). The membranes were incubated overnight at 4 °C with GAPDH (1:5000, 1049-1-AP, Proteintech Group, Wuhan, China), anti-PTGS2 (1:2000, 12375-1-AP, Proteintech Group, China), anti-BAX (1:1000, ab777, Abcam, Cambridge, UK), anti-BCL2 (1:5000, ET1702-53, HUABIO, Hangzhou, China), anti-BCL-XL (1:8000, 10783-1-AP, Proteintech Group, China), anti-MMP2 (1:3000, 66366-1-Ig, Proteintech Group, China), anti-MMP9 (1:3000, 10372-2-AP, Proteintech Group, China), anti-JAK1 (1:3000, 66466-1-Ig, Proteintech Group, China), anti-phospho-JAK1 (1:400, GB115604-100, Servicebio, China), anti-STAT3 (1:2000, 10253-2-AP, Proteintech Group, China), and anti-phospho-STAT3 (1:1000, 39595, Activemotif, Shanghai, China) at the appropriate dilution and then incubated with the secondary antibody at room temperature for 1.5 h. The bands were visualized by employing an ECL detection reagent (36208ES76, Yeasen, Shanghai, China) and independently quantified twice using ImageJ (v1.8.0.322) and ChemiScope Analysis (Version 2.1.6.0) software. Subsequently, the obtained data were normalized to GAPDH.

CAL-27 cells = experiment: Transwell migration assay, CAL-27; assay type: cell-based; settings: CAL-27, 24 h treatment at working concentrations, vs control
Protocol: (§1) Following 24 h drug treatment at the predefined working concentrations, CAL-27 and SAS cells (5 × 10^5 cells/mL in serum-free medium) were seeded in Transwell upper chambers (200 μL/well, 1 × 10^5 cells) with 700 μL complete medium containing 10% FBS in lower chambers. After 36 h of incubation (37 °C, 5% CO2), the cells from the upper surface of the membrane were wiped off using a cotton swab, whereupon migrated cells were fixed (4% paraformaldehyde [P0099-100 mL, Beyotime, Haimen, China], 4 °C, 4 h), stained (0.1% crystal violet [C0121-100 mL, Beyotime, China], 30 min), and quantified by counting five random fields under a microscope (CX23, Olympus, Tokyo, Japan) using ImageJ (v1.8.0.322), with triplicate wells per condition.

SAS cells [2] = experiment: Transwell migration assay, SAS; assay type: cell-based; settings: 24 h treatment at working concentrations, vs control
Protocol: as §1

[3] = test system: MMP2 mRNA in CAL-27 cells; experiment: RT-qPCR MMP2 mRNA, CAL-27; assay type: cell-based; settings: CAL-27, 24 h, vs control
Protocol: (§2) Equal amounts of RNA were reverse transcribed into cDNA using the Reverse Transcription Kit (AG11705, Accurate Biology, Guangzhou, China) following the manufacturer’s instructions. Quantitative PCR was performed on a QIAGEN Rotor-GeneQ system (9001862, QIAGEN, Hilden, Germany) with SYBR Green Pro Taq HS Premix II (AG11702, Accurate Biology, China).
(§3) The PCR protocol consisted of initial denaturation at 95 °C for 30 s, followed by 40 cycles of 95 °C for 5 s and 60 °C for 30 s. All reactions were performed in triplicate, with melting curve analysis confirming amplification specificity. The expression of the target genes was normalized to GAPDH, and fold changes were calculated in the manner of the 2^−ΔΔCT .

MMP2 mRNA in SAS cells = experiment: RT-qPCR MMP2 mRNA, SAS; assay type: cell-based; settings: vs control
Protocol: as §2, §3

SAS cells [4] = experiment: Annexin V-FITC/PI flow cytometry apoptosis, SAS; assay type: cell-based; settings: 24 h, vs control
Protocol: After 24 h drug treatment at the predefined working concentrations, CAL-27 and SAS cells were trypsinized, centrifuged (200× g, 5 min, RT), and washed twice with 1 mL ice-cold PBS. Cell aliquots ((5–10) × 10^4 cells) were resuspended in 195 μL Annexin V-FITC binding buffer, followed by sequential addition of 5 μL Annexin V-FITC and 10 μL propidium iodide (PI) (BMS500FI-100, Thermo Fisher Scientific, Wien, Austria) with gentle mixing. After 10–20 min of incubation in darkness (20–25 °C) with intermittent resuspension (2–3 times), samples were placed on ice and analyzed within 1 h using a flow cytometer (CytExpert software [Version 2.4.0.28, Beckman Coulter, Brea, CA, USA]). Triplicate independent experiments were performed for statistical analysis.

Compound	IC50 (VERO cells) [µM]	proliferation rate of VERO cells (VERO cells)	cytotoxicity in VERO cells (VERO cells)	COX-2 protein expression (Western blot) [1]	migratory capacity (Transwell) (CAL-27 cells)	migratory capacity (Transwell) (SAS cells [2])	MMP2 mRNA expression [3]	MMP2 mRNA expression (MMP2 mRNA in SAS cells)	total apoptotic cell population (early and late apoptosis) (SAS cells [4])
Cc1ccc(-c2cc(C)n(S(=O)(=O)Oc3ccc(I)cc3)n2)cc1 [Compound 4b]	102	remained largely unchanged	lower cytotoxicity than CXB	significantly reduced	significantly reduced	significantly reduced	significantly downregulated	markedly suppressed	significantly higher
Cc1ccc(-c2cc(C)n(S(=O)(=O)Oc3ccccc3Cl)n2)cc1 [Compound 4d]	> 100	remained largely unchanged	lower cytotoxicity than CXB	significantly reduced	significantly reduced	significantly reduced	significantly downregulated	markedly suppressed	significantly higher
Cc1cc(-c2ccco2)nn1S(=O)(=O)Oc1ccccc1Cl [Compound 5f]	225	moderate inhibitory effect	lower cytotoxicity than CXB	significantly reduced	significantly reduced	significantly reduced	significantly downregulated	no statistically significant suppression	significantly higher; also recorded: optimal efficacy
